Measured values reported in patent publication US10189858B2, “Deuterium-enriched isoindolinonyl-piperidinonyl conjugates and oxoquinazolin-3(4H)-yl-piperidinonyl conjugates and methods of treating medical disorders using same” (DeuteRx, LLC, priority 2015, dated 2019).

Test: Deuterium/hydrogen (D/H) exchange in deuterium-enriched dBET1 in PBS (HPLC/UV and LC/MS)
Format: physicochemical
Details: PBS pH 7.4, 25° C.
Protocol: In order to evaluate the stability against racemization provided by deuterium enrichment at the racemizable chiral center of the glutarimide portion of dBET1, a sample of racemic, deuterium-enriched dBET1 from Example 1 (i.e., D-dBET1 from Example 1) was incubated in PBS (pH=7.4) at 25° C. in the presence of ethyl paraben as an internal standard. A 20 μL solution of racemic, deuterium-enriched dBET1 (D-dBET1), aliquoted from 21.6 mg dissolved in 1 mL DMSO, was added to 4 mL of PBS (pH=7.4). The reaction was performed in duplicate. Aliquots were taken out at preset times and quenched with methanol in the presence of acetic acid (250 μL aliquot quenched with 500 μL 5% (v/v) acetic acid in methanol). The samples were analyzed by HPLC/UV (10 μL injection) and LC/MS (1 μL injection) using a reverse-phase column.
Since the reaction is performed in an achiral medium, the kinetics of D/H exchange will be independent of the chirality of the starting material. As a result, separation of the enantiomers of D-dBET1 prior to the stability study is not required.
A change in the ratio is expected if D/H exchange is observed since, for example, a peak at M+2, where M is the mass of the mono-deuterated isotopomer of dBET1, would by D/H exchange disappear and give a corresponding peak at M+1. Similarly, M+3 would give M+2, etc.

Question: For `[2H]C1(N2C(=O)c3cccc(OCC(=O)NCCCCNC(=O)C[C@@H]4N=C(c5ccc(Cl)cc5)c5c(sc(C)c5C)-n5c(C)nnc54)c3C2=O)CCC(=O)NC1=O` (mixture of isomers) [D-dBET1], which half-life at 0.107 mg/mL is on record?
Answer: > 24 h

Question: What about the “area of chromatography peak normalized to internal standard (UV analysis)” value (ethyl paraben internal standard) of the same compound?
Answer: decreased as a function of the incubation time

Question: And the “change of mass spectral isotopic distribution as a function of incubation time” value (up to 24h, LC/MS)?
Answer: did not change significantly
